Results on 4 molecules are retold here after US20130231303A1, “5-HALOGENOPYRAZOLE(THIO)CARBOXAMIDES” (Bayer Intellectual Property GmbH, priority 2010, published 2013).

Series [1] concerns Alternaria solani. Put plainly: Alternaria test (tomato)/preventive. It is filed as in vivo. As to conditions: preventive, 500 ppm, evaluated 7 days after inoculation. Here is the method: The plants remain for one day in an incubation cabinet at approximately 22° C. and a relative atmospheric humidity of 100%. Then the plants are placed in an incubation cabinet at approximately 20° C. and a relative atmospheric humidity of 96%.

The test system of series [2] is Rhizoctonia solani. Briefly: Rhizoctonia test (rice)/protective. Conditions: protective, 250 ppm, evaluated 4 days after inoculation. The format is in vivo. The source says: Rhizoctonia Test (Rice)/Protective
Series [3] concerns Uromyces appendiculatus. Put plainly: Uromyces test (beans)/preventive. As to conditions: preventive, 100 ppm, evaluated 10 days after inoculation. The format is in vivo. An excerpt:
Uromyces Test (Beans)/Preventive

Series [4] has as its system Pyrenophora teres. Briefly: Pyrenophora test (barley)/preventive. The format is in vivo. As to conditions: preventive, 500 ppm, evaluated 7-9 days after inoculation. As to the method:
(§1) The plants remain for 48 hours in an incubation cabinet at 22° C. and a relative atmospheric humidity of 100%. Then the plants are placed in a greenhouse at a temperature of approximately 20° C. and a relative atmospheric humidity of approximately 80%.

Series [5] has as its system Phakopsora pachyrhizi. Briefly: Phakopsora test (soybeans)/protective. The format is in vivo. Conditions: protective, 250 ppm, evaluated 11 days after inoculation. The source says: Phakopsora Test (Soybeans)/Protective
For series [6], the system named is Venturia inaequalis. Put plainly: Venturia test (apples)/preventive. As to conditions: preventive, 100 ppm, evaluated 10 days after inoculation. The format is in vivo. Here is the method:
Venturia Test (Apples)/Preventive […] After the spray coating has dried on, the plants are inoculated with an aqueous conidia suspension of the causal agent of apple scab (Venturia inaequalis) and then remain for 1 day in an incubation cabinet at approximately 20° C. and a relative atmospheric humidity of 100%.

For series [7], the system named is Puccinia recondita. Briefly: Puccinia test (wheat)/preventive. The format is in vivo. As to conditions: preventive, 500 ppm, evaluated 7-9 days after inoculation. Here is the method:
as §1

Series [8] has as its system Blumeria graminis f.sp. hordei. Briefly: Blumeria test (barley)/preventive. Conditions: preventive, 500 ppm, evaluated 7 days after inoculation. It is filed as in vivo. Here is the method: After the spray coating has been dried, the plants are dusted with spores of Blumeria graminis f.sp. hordei. The plants are placed in the greenhouse at a temperature of approximately 18° C. and a relative atmospheric humidity of approximately 80% to promote the development of mildew pustules.

Series [9] has as its system Botrytis cinerea. Briefly: Botrytis test (beans)/preventive. The format is in vivo. Conditions: preventive, 100 ppm, lesion size 2 days after inoculation. As to the method:
Botrytis Test (Beans)/Preventive
• Solvent: 24.5 parts by weight of acetone • 24.5 parts by weight of N,N-dimethylformamide • Emulsifier: 1 part by weight of alkylaryl polyglycol ether
After the spray coating has dried on, 2 small pieces of agar covered with growth of Botrytis cinerea are placed on each leaf. The inoculated plants are placed in a darkened chamber at 20° C. and a relative atmospheric humidity of 100%.
2 days after the inoculation, the size of the lesions on the leaves is evaluated.

Series [10] is described as follows: logP by HPLC on reversed-phase column (EEC Directive 79/831 Annex V.A8). It is filed as physicochemical. Conditions: HPLC, reversed-phase C 18, 40° C., 0.1% aqueous formic acid and acetonitrile gradient. As to the method: In table 1, the logP values were determined in accordance with EEC Directive 79/831 Annex V.A8 by HPLC (High Performance Liquid Chromatography) on a reversed-phase column (C 18), using the method described below: Temperature: 40° C.; Mobile phases: 0.1% aqueous formic acid and acetonitrile; linear gradient from 10% acetonitrile to 90% acetonitrile. Calibration was carried out using unbranched alkan-2-ones (comprising 3 to 16 carbon atoms) with known logP values (determination of the logP values by the retention times using linear interpolation between two successive alkanones). lambda-max-values were determined using UV-spectra from 200 nm to 400 nm and the peak values of the chromatographic signals.

The subject of series [11] is Sphaerotheca fuliginea. Put plainly: Sphaerotheca test (cucumber)/preventive. Conditions: preventive, 500 ppm, evaluated 7 days after inoculation. The format is in vivo. As to the method:
Then the plants are placed in a greenhouse at approximately 23° C. and a relative atmospheric humidity of approximately 70%.

The test system of series [12] is Fusarium nivale (var. majus). Put plainly: Fusarium nivale (var. majus)-test (wheat)/preventive. It is filed as in vivo. As to conditions: preventive; for Efficacy: evaluated 5 days after inoculation. As to the method: After the spray coating has been dried, the plants are slightly injured by using a sandblast and afterwards they are sprayed with a conidia suspension of Fusarium nivale (var. majus). The plants are placed in the greenhouse under a translucent incubation cabinet at a temperature of approximately 10° C. and a relative atmospheric humidity of approximately 100%.

The subject of series [13] is Pyricularia oryzae. The format is in vivo. As to conditions: rice, protective, 250 ppm, evaluated 5 days after inoculation.
Series [14] has as its system Cochliobolus miyabeanus. Briefly: Cochliobolus test (rice)/protective. Conditions: protective, 250 ppm, evaluated 4 days after inoculation.
Protocol: • Solvent: 28.5 parts by weight of acetone • Emulsifier: 1.5 part by weight of alkylaryl polyglycol ether
1 day after the treatment, the plants are inoculated with an aqueous spore suspension of Cochliobolus miyabeanus. The plants are then placed in a greenhouse at a relative atmospheric humidity of 100% and a temperature of 25° C.
Evaluation is carried out 4 days after the inoculation.

SMILES strings stand for the structures.

By logP is commonly meant the decadic logarithm of the partition coefficient of the neutral form, usually between octanol and water. Regarding `CC(C)CC(C)c1sccc1NC(=O)c1c(C(F)F)nn(C)c1Cl` (stereo not shown) [Example 3], the Efficacy in [1] was determined as 100%; in series [2], 100%; in series [3], 100%; in [4], 100%; in [5], 98%; in series [6] it was 100%. For the same molecule, the Efficacy in series [7] came out at 100%; in series [8], 100%; in series [9] it was 98%; in series [11], 96%; in [12] (250 ppm), 86%; in series [12] (500 ppm), 100%. Also, the Efficacy in series [13] and in series [14] was 97% throughout. In addition, in series [10], the logP was 4.19. Moreover, the protection entry in series [12] (dose of 250 ppm and 500 ppm (text summary of table G2)) was “at least 80%”.
Take `Cn1nc(C(F)F)c(C(=O)Nc2ccsc2CC[Si](C)(C)C)c1Cl` [Example 18]: the Efficacy in series [1] is reported as 80%; in series [3], 100%; in series [4] it was 100%; in [6], 94%; in series [7] it was 100%; in [8] it was 92%. Also, the figures for the Efficacy in series [9], in series [11] and in [12] (500 ppm) were 91%, 98% and 100%, respectively. In addition, the logP in [10] came to 4.30.
In the case of `CC(C)CC(C)c1sccc1NC(=O)c1c(C(F)F)nn(C)c1F` (stereo not shown) [Example 4], the Efficacy was 100% in [1]; 100% in [3]; 100% in series [4]; 99% in series [5]; 100% in series [6]; 100% in series [7]. The Efficacy in [8] is 100%; in series [9], 97%; in series [11] it was 100%. In series [10], the logP turned out to be 3.94.
As for `Cn1nc(C(F)F)c(C(=O)Nc2ccsc2CC[Si](C)(C)C)c1F` [Example 19], the Efficacy in series [1] amounted to 90%; in [3], 100%; in [4], 100%; in series [6] it was 99%; in series [7] it was 100%; in series [8], 100%. Moreover, the Efficacy in series [9], in series [11] and in series [12] (500 ppm) was 100% in each case. This molecule also yielded a logP in [10] of 4.06.
